Twelve compounds from patent US20240382481A1 (priority 2021, published 2024) can be followed below.

Molecules are shown by their SMILES.

Among the targets are SRPK1 (Homo sapiens, UniProt Q96SB4); SRPK2 (Homo sapiens, UniProt P78362); SRPK3/MSSK1/STK23 (Homo sapiens, UniProt Q9UPE1).
What all share (assay): biochemical

Chain of SRPK1 (Q96SB4 whole entry, species assumed): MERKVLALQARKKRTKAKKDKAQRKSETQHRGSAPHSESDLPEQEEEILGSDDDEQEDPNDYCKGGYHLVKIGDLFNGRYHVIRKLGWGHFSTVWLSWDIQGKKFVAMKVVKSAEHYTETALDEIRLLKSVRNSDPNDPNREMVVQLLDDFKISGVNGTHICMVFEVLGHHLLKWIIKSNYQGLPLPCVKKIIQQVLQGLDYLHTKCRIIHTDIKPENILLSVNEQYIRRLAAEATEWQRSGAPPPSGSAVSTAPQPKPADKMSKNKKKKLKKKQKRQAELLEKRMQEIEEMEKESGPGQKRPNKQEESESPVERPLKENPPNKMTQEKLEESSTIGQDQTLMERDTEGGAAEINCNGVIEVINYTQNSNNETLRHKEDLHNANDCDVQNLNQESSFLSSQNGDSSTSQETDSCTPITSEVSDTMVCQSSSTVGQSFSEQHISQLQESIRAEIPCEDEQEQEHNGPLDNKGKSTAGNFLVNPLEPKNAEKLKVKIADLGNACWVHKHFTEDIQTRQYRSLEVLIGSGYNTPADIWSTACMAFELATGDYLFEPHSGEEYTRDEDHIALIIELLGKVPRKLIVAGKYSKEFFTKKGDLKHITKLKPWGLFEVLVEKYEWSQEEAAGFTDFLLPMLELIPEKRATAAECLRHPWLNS
Chain of SRPK2 (P78362 whole entry, species assumed): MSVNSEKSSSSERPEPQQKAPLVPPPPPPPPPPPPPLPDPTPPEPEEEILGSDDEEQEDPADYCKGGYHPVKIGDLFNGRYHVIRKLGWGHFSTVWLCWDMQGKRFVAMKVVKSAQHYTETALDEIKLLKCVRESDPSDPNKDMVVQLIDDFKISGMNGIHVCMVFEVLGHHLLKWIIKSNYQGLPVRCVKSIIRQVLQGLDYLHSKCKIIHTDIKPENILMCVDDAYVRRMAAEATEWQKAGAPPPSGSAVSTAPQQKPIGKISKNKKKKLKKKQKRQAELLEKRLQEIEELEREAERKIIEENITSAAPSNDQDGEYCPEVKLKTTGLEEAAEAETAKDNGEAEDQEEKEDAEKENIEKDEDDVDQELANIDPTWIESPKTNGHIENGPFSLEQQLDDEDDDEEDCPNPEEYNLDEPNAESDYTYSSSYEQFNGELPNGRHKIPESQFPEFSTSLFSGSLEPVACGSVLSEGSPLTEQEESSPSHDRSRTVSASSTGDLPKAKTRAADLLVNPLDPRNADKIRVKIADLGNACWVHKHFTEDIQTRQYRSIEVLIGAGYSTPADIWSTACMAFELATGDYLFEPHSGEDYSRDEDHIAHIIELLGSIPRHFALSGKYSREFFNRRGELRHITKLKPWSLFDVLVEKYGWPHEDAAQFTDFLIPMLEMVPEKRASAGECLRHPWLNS
Chain of SRPK3/MSSK1/STK23 (Q9UPE1 whole entry): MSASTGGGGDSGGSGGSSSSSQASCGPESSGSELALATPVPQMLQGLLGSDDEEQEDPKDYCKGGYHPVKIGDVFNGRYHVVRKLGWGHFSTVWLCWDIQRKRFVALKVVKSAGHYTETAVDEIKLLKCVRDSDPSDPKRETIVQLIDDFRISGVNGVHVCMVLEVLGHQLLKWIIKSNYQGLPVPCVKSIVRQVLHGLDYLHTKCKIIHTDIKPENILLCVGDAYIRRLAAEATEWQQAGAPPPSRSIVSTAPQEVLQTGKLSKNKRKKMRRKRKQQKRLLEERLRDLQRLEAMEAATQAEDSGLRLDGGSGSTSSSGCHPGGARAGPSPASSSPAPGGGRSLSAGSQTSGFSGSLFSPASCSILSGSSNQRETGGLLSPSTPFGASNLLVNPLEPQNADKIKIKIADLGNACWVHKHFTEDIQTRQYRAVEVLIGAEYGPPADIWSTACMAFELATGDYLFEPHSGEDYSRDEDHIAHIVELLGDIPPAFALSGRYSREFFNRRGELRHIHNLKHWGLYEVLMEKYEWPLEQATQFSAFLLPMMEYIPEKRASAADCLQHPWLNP

`CCn1c(-c2nccc(NCc3cccnc3N(C)S(C)(=O)=O)n2)nc2cc(Cl)ccc21` [Compound B15]: the values for the IC50 at SRPK1 and against SRPK2 were less than 50 nM and 500 to 2500 nM, respectively.
In the case of `CCN(c1ncccc1Cn1ccc2cnc(-c3nc4cc(Cl)ccc4[nH]3)cc21)S(C)(=O)=O` [Compound B16], the 50% inhibitory concentration (IC50) against SRPK3/MSSK1/STK23, against SRPK1 and on SRPK2 was 50 to 500 nM in each case.
Take `Cc1cc2cnc(-c3nc4cc(Cl)ccc4n3C)nc2n1Cc1cccnc1N(C)S(C)(=O)=O` [Compound B21]: the IC50 against SRPK3/MSSK1/STK23 was 50 to 500 nM; against SRPK1 it was less than 50 nM; on SRPK2, 50 to 500 nM.
For the compound `CN(c1ncccc1CNc1ccnc(-c2nc3cc(C(C)(C)C)c(F)cc3[nH]2)n1)S(C)(=O)=O` [Compound B18], the values for the IC50 at SRPK3/MSSK1/STK23, at SRPK1 and against SRPK2 were less than 50 nM, 50 to 500 nM and 500 to 2500 nM, respectively.
As to `CN(c1ncccc1CNc1cccc(-c2nc3cc(Cl)ccc3n2C)n1)S(C)(=O)=O` [Compound B6], the IC50 was less than 50 nM against SRPK3/MSSK1/STK23, 50 to 500 nM against SRPK1 and 50 to 500 nM against SRPK2.
In the case of `CCN(c1ncccc1CNc1ccnc(-c2nc3cc(Cl)ccc3[nH]2)n1)S(C)(=O)=O` [Compound B8], the IC50 on SRPK1 is less than 50 nM; against SRPK2, 50 to 500 nM.
In the case of `Cc1cc2cnc(-c3nc4cc(Cl)c(Cl)cc4n3C)nc2n1Cc1cccnc1N(C)S(C)(=O)=O` [Compound B22], the figures for the IC50 against SRPK3/MSSK1/STK23, against SRPK1 and against SRPK2 were 50 to 500 nM, less than 50 nM and 50 to 500 nM, respectively.
Regarding `CN(c1ccccc1CNc1cccc(-c2nc3cc(Cl)ccc3[nH]2)n1)S(C)(=O)=O` [Compound B3], the IC50 was less than 50 nM against SRPK1 and 50 to 500 nM against SRPK2.
The corresponding values for `CN(c1ncncc1CNc1ccnc(-c2nc3cc(Cl)ccc3[nH]2)n1)S(C)(=O)=O` [Compound B4] are 50 to 500 nM and 500 to 2500 nM.
At SRPK2, `CN(c1ncccc1CNc1ccnc(-c2nc3cc(Cl)c(Cl)cc3n2C)n1)S(C)(=O)=O` [Compound B19] displayed an IC50 of 50 to 500 nM.
Consider `CN(c1ncccc1Cn1c(=O)ccc2cnc(-c3nc4cc(Cl)ccc4[nH]3)cc21)S(C)(=O)=O` [Compound B20], for which the results for the IC50 at SRPK3/MSSK1/STK23, against SRPK1 and against SRPK2 were 500 to 2500 nM, 50 to 500 nM and 50 to 500 nM, respectively.
As for `Cc1cc(Cl)cc2nc(-c3nccc(NCc4cccnc4N(C)S(C)(=O)=O)n3)[nH]c12` [Compound B9], the values for the concentration for half-maximal inhibition (IC50) against SRPK3/MSSK1/STK23, against SRPK1 and against SRPK2 were less than 50 nM, less than 50 nM and 50 to 500 nM, respectively.
